From PMC9762789, “Chromone-based monoamine oxidase B inhibitor with potential iron-chelating activity for the treatment of Alzheimer’s disease” (Journal of Enzyme Inhibition and Medicinal Chemistry, 2022)
Where two headings read alike, the source gives them in different places.

What was measured:
[1] = pKa determination by automated spectrophotometric titration; type: physicochemical; conditions: 0.1 M KCl solution
[2] = iron (III) affinity constants and pFe3+ by spectrophotometric titration; type: physicochemical; conditions: for Log β1 / Log β2 / Log β3: DMSO: KCl (0.1 M) = 1:1.5 (v/v); for pFe^3+: calculated from Log β values obtained in DMSO: KCl (0.1 M) = 1:1.5 (v/v)
[3] = biological target: T1, MAO-B (Homo sapiens, UniProt P27338); assay: hMAO-B inhibition assay; type: biochemical; conditions: for inhibition at 0.1 µM: hMAO-B, 100 nM, read-out: Inhibitory rate (%, 100 nM)
T1 construct: purchased Sigma-Aldrich
T1 sequence (P27338 1-520): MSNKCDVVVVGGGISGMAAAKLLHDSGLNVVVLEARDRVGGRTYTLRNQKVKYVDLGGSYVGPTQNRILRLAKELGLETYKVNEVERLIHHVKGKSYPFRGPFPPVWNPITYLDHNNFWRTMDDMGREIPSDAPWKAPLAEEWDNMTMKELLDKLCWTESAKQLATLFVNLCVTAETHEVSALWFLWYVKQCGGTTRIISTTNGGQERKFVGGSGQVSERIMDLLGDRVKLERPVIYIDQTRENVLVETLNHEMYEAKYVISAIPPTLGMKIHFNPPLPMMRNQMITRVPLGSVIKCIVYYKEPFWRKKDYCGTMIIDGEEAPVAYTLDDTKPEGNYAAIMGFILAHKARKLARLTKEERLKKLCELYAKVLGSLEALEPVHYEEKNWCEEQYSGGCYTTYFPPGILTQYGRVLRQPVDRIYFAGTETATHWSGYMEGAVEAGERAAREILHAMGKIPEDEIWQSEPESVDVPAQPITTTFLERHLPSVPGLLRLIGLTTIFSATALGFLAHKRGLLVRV
Protocol: (§1) The reagents and enzymes (Human MAO-B and Human MAO-A) applied in this experiment were purchased from Sigma-Aldrich. According to the manuals, all components (substrate solution and enzyme solution) are diluted and placed aside for use. The detailed process has been mentioned in our early work[34].

[4] = biological target: T2, Human MAO-A (Homo sapiens, UniProt P21397); assay: hMAO-A inhibition assay; type: biochemical; conditions: for inhibition at 10 µM: read-out: hMAO-A inhibitory rate at 10 μM, 10 μM (highest concentration tested)
T2 construct: purchased Sigma-Aldrich
T2 sequence (P21397 1-527): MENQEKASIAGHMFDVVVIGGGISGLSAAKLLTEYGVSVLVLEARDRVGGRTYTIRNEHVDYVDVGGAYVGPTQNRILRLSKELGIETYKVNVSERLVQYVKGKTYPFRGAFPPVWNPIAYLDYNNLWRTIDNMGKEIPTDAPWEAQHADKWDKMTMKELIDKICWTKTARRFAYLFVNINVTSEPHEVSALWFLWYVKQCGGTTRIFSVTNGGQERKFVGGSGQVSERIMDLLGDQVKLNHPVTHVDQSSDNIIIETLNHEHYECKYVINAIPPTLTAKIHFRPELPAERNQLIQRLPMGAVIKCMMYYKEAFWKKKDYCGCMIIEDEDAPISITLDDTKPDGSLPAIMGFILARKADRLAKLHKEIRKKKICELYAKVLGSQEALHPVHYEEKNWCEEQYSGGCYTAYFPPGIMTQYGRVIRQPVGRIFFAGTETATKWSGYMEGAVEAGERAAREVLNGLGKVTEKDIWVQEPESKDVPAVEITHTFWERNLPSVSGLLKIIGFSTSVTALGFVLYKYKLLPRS
Protocol: Further, the inhibitory activity of compounds against hMAO-A isoform was tested and calculated as a selectivity index [Selectivity index (SI): IC50 (hMAO-A)/IC50 (hMAO-B)].
as §1

| Structure (SMILES) | pKa ([1]; read-out: pKa1) | pKa ([1]; read-out: pKa2) | Log β1 [2] | Log β2 [2] | Log β3 [2] | pFe^3+ [2] | inhibition at 0.1 µM [3] | melting point | IC50 [3] | SI: hMAO-B selectivity index = IC50 (hMAO-A)/IC50 (hMAO-B) [3] | IC50 [4] | inhibition at 10 µM [4] |
| --- | --- | --- | --- | --- | --- | --- | --- | --- | --- | --- | --- | --- |
| Cc1c(O)c(=O)ccn1CCNCc1coc2cc(OCc3ccc(Cl)cc3)ccc2c1=O [Compound 17l, 1–(2-(((7-((4-Chlorobenzyl)oxy)-4-oxo-4H-chromen-3-yl)methyl)amino)ethyl)-3-hydroxy-2-methylpyridin-4(1H)-one] | 2.61 | 9.47 | 13.02 | 24.99 | 34.39 | 18.70 | 61.4 ± 3.4% | 189 to 191 °C | 75.6 ± 3.1 nM | 17.4 | 1310 ± 13.4 nM | – |
| Cc1ccc2occ(C(=O)NCCn3ccc(=O)c(O)c3C)c(=O)c2c1 [Compound 8c, N-(2–(3-hydroxy-2-methyl-4-oxopyridin-1(4H)-yl)ethyl)-6-methyl-4-oxo-4H-chromene-3-carboxamide] | 3.26 | 9.69 | 13.86 | 25.07 | 33.48 | 17.19 | 42.1 ± 0.8% | 265 to 267 °C | 112 ± 5.7 nM | >89 | – | < 20% |
| Cc1ccc2c(=O)c(CNCCn3ccc(=O)c(O)c3C)coc2c1 [Compound 17b, 3-Hydroxy-2-methyl-1–(2-(((7-methyl-4-oxo-4H-chromen-3-yl)methyl)amino)ethyl)pyridin-4(1H)-one] | 2.95 | 9.82 | 13.58 | 25.38 | 35.34 | 18.61 | 49.5 ± 0.3% | 251 to 253 °C | 82.78 ± 0.7 nM | >120 | – | < 20% |
| COc1ccc2occ(C(=O)NCCn3ccc(=O)c(O)c3C)c(=O)c2c1 [Compound 8e, N-(2–(3-hydroxy-2-methyl-4-oxopyridin-1(4H)-yl)ethyl)-6-methoxy-4-oxo-4H-chromene-3-carboxamide] | 3.18 | 9.67 | 13.67 | 25.38 | 35.37 | 19.08 | 34.3 ± 2.2% | 260 to 262 °C | – | – | – | – |
| Cc1c(O)c(=O)ccn1CCNCc1coc2cc(OCc3cccc(F)c3)ccc2c1=O [Compound 17i, 1–(2-(((7-((3-Fluorobenzyl)oxy)-4-oxo-4H-chromen-3-yl)methyl)amino)ethyl)-3-hydroxy-2-methylpyridin-4(1H)-one] | 2.58 | 9.68 | 12.93 | 24.99 | 34.10 | 17.81 | 39.48 ± 0.3% | 215 to 217 °C | – | – | – | – |
| Cc1ccc(COc2ccc3c(=O)c(CNCCn4ccc(=O)c(O)c4C)coc3c2)cc1 [Compound 17h, 3-Hydroxy-2-methyl-1–(2-(((7-((4-methylbenzyl)oxy)-4-oxo-4H-chromen-3-yl)methyl)amino)ethyl)pyridin-4(1H)-one] | 2.56 | 9.59 | 12.87 | 24.73 | 33.36 | 17.34 | 30.1 ± 3.7% | 134 to 136 °C | – | – | – | – |

Further lines, results first:

| pKa ([1]; read-out: pKa1) | pKa ([1]; read-out: pKa2) | Log β1 [2] | Log β2 [2] | Log β3 [2] | pFe^3+ [2] | inhibition at 0.1 µM [3] | melting point | IC50 [3] | SI: hMAO-B selectivity index = IC50 (hMAO-A)/IC50 (hMAO-B) [3] | IC50 [4] | inhibition at 10 µM [4] | Structure (SMILES) |
| --- | --- | --- | --- | --- | --- | --- | --- | --- | --- | --- | --- | --- |
| 3.19 | 9.34 | 13.40 | 23.16 | 31.01 | 15.87 | 38.7 ± 0.5% | 234 to 236 °C | – | – | – | – | Cc1ccc(COc2ccc3c(=O)c(C(=O)NCCn4ccc(=O)c(O)c4C)coc3c2)cc1 [Compound 15c, N-(2–(3-hydroxy-2-methyl-4-oxopyridin-1(4H)-yl)ethyl)-7-((4-methylbenzyl)oxy)-4-oxo-4H-chromene-3-carboxamide] |
| 3.32 | 9.58 | 13.74 | 25.04 | 34.36 | 18.35 | 35.79 ± 0.2% | 270 to 272 °C | – | – | – | – | Cc1ccc2c(=O)c(C(=O)NCCn3ccc(=O)c(O)c3C)coc2c1 [Compound 8b, N-(2–(3-hydroxy-2-methyl-4-oxopyridin-1(4H)-yl)ethyl)-7-methyl-4-oxo-4H-chromene-3-carboxamide] |
| 3.2 | 9.6 | 13.82 | 25.31 | 34.23 | 18.18 | 41.9 ± 1.4% | 248 to 250 °C | 107 ± 5.6 nM | >93 | – | < 20% | COc1ccc2c(=O)c(C(=O)NCCn3ccc(=O)c(O)c3C)coc2c1 [Compound 8d, N-(2–(3-hydroxy-2-methyl-4-oxopyridin-1(4H)-yl)ethyl)-7-methoxy-4-oxo-4H-chromene-3-carboxamide] |
| 3.06 | 9.73 | 13.64 | 25.57 | 34.21 | 17.80 | 39.1 ± 1.1% | 238 to 240 °C | – | – | – | – | Cc1cccc(COc2ccc3c(=O)c(C(=O)NCCn4ccc(=O)c(O)c4C)coc3c2)c1 [Compound 15b, N-(2–(3-hydroxy-2-methyl-4-oxopyridin-1(4H)-yl)ethyl)-7-((3-methylbenzyl)oxy)-4-oxo-4H-chromene-3-carboxamide] |
| 3.3 | 9.59 | 13.77 | 24.72 | 32.17 | 16.45 | 39 ± 1.1% | 225 to 227 °C | – | – | – | – | Cc1c(O)c(=O)ccn1CCNC(=O)c1coc2cc(OCc3ccccc3)ccc2c1=O [Compound 15a, 7-(Benzyloxy)-N-(2–(3-hydroxy-2-methyl-4-oxopyridin-1(4H)-yl)ethyl)-4-oxo-4H-chromene-3-carboxamide] |
| 3.25 | 9.56 | 13.82 | 24.02 | 31.70 | 16.00 | 39.1 ± 0.5% | 241 to 243 °C | – | – | – | – | Cc1c(O)c(=O)ccn1CCNC(=O)c1coc2cc(OCc3ccc(Cl)cc3)ccc2c1=O [Compound 15g, 7-((4-Chlorobenzyl)oxy)-N-(2–(3-hydroxy-2-methyl-4-oxopyridin-1(4H)-yl)ethyl)-4-oxo-4H-chromene-3-carboxamide] |
| 3.36 | 9.52 | 13.50 | 25.31 | 34.85 | 19.01 | 38.5 ± 1.4% | 237 to 239 °C | – | – | – | – | Cc1c(O)c(=O)ccn1CCNC(=O)c1coc2cc(OCc3cccc(F)c3)ccc2c1=O [Compound 15d, 7-((3-Fluorobenzyl)oxy)-N-(2–(3-hydroxy-2-methyl-4-oxopyridin-1(4H)-yl)ethyl)-4-oxo-4H-chromene-3-carboxamide] |
